15 molecules from PubChem BioAssay AID270 (DTP/NCI, 2004) can be followed below.

This test has as its system BDF1 mice, s.c. Lewis lung carcinoma, T/C %. The test is described as follows: NCI In Vivo Anticancer Drug Screen. Data for tumor model Lewis Lung Carcinoma (subcutaneous) in B6D2F1 (BDF1) mice. On the procedure:
The antitumor activity of compounds was measured in mice bearing transplantable tumors. Survival or tumor size were measured and the results are expressed as the measurement made in the treated group (T) divided by the measurement made in the vehicle treated control group (C). The tumor model used in this assay is Lewis Lung Carcinoma (subcutaneous) in B6D2F1 (BDF1) mice

Setting [1] is: endpoint: median survival time, dose: 12.5 mg/kg/injection, schedule: Q01DX009 (ip), vehicle: saline with Tween-80, higher = longer survival.
Where [2] appears, read: endpoint: median survival time, dose: 25.0 mg/kg/injection, schedule: Q01DX009 (ip), vehicle: saline with Tween-80, higher = longer survival.
The mark [3] stands for this setting: endpoint: median survival time, dose: 0.5 mg/kg/injection, schedule: Q01DX009 (ip), vehicle: saline, higher = longer survival.
[4] abbreviates: endpoint: median survival time, dose: 1.0 mg/kg/injection, schedule: Q01DX009 (ip), vehicle: saline, higher = longer survival.
The mark [5] stands for this setting: endpoint: median survival time, dose: 2.0 mg/kg/injection, schedule: Q01DX009 (ip), vehicle: saline, higher = longer survival.

Values joined by “and” are separate entries in the source; they are usually repeats but may differ in a detail not shown here. Equal entries are not always repeated. Records with an inconclusive call do not appear.

`C[C@H](N)C(=O)N[C@@H]1[C@H]2C(=C(O)C[C@@H](O)[C@@H]2O)C(=O)O[C@@H]1C`: the T/C is, setting by setting: (endpoint: mean tumor weight, dose: 300.0 mg/kg/injection, schedule: Q01DX011 (ip), vehicle: saline, higher = larger tumour) 83 % of control; (endpoint: mean tumor weight, dose: 600.0 mg/kg/injection, schedule: Q01DX011 (ip), vehicle: saline, higher = larger tumour) 60 % of control; (endpoint: mean tumor weight, dose: 1200.0 mg/kg/injection, schedule: Q01DX011 (ip), vehicle: saline, higher = larger tumour) 89 % of control.

Regarding `Cc1cc(CCl)c(C)c(Br)c1C`, the T/C (endpoint: median survival time, dose: 1.5 mg/kg/injection, schedule: Q01DX009 (ip), vehicle: Klucel (hydroxypropylcellulose) (HPC), higher = longer survival) was 108 % of control; the T/C (endpoint: median survival time, dose: 3.0 mg/kg/injection, schedule: Q01DX009 (ip), vehicle: Klucel (hydroxypropylcellulose) (HPC), higher = longer survival) was 120 % of control; the T/C (endpoint: median survival time, dose: 6.0 mg/kg/injection, schedule: Q01DX009 (ip), vehicle: Klucel (hydroxypropylcellulose) (HPC), higher = longer survival) is 95 % of control.

Regarding `FC(F)(F)c1cc(CN(CCCl)CCCl)cc(C(F)(F)F)c1`, the T/C runs as follows: (endpoint: median survival time, dose: 12.5 mg/kg/injection, schedule: Q01DX009 (ip), vehicle: Klucel (hydroxypropylcellulose) (HPC), higher = longer survival) 90 % of control; (endpoint: median survival time, dose: 50.0 mg/kg/injection, schedule: Q01DX009 (ip), vehicle: Klucel (hydroxypropylcellulose) (HPC), higher = longer survival) 90 % of control.

For `C[C@]12CC[C@H](O)C[C@@]1(O)CC[C@@H]1[C@@H]2CC[C@]2(C)[C@@H](c3ccc(=O)oc3)CC[C@]12O`, the T/C reads like this: (endpoint: median survival time, dose: 1.25 mg/kg/injection, schedule: Q01DX009 (ip), vehicle: Klucel (hydroxypropylcellulose) (HPC), higher = longer survival) 97 % of control; (endpoint: median survival time, dose: 2.5 mg/kg/injection, schedule: Q01DX009 (ip), vehicle: Klucel (hydroxypropylcellulose) (HPC), higher = longer survival) 98 % of control; (endpoint: median survival time, dose: 10.0 mg/kg/injection, schedule: Q01DX009 (ip), vehicle: Klucel (hydroxypropylcellulose) (HPC), higher = longer survival) 104 % of control; (endpoint: median survival time, dose: 20.0 mg/kg/injection, schedule: Q01DX009 (ip), vehicle: Klucel (hydroxypropylcellulose) (HPC), higher = longer survival) 113 % of control.

As for `C[C@]12CCC(=O)C=C1CC[C@@H]1[C@@H]2C(=O)C[C@]2(C)C3=CC(=O)O[C@H]3C[C@@H]12`, the T/C was 106 % of control (endpoint: median survival time, dose: 3.13 mg/kg/injection, schedule: Q01DX009 (ip), vehicle: saline, higher = longer survival); 109 % of control (endpoint: median survival time, dose: 6.25 mg/kg/injection, schedule: Q01DX009 (ip), vehicle: saline, higher = longer survival); 116 % of control under setting [1]; 100 % of control (endpoint: median survival time, dose: 12.5 mg/kg/injection, schedule: Q01DX009 (ip), vehicle: saline, higher = longer survival); 91 % of control under setting [2].

With `CCn1cnc2c(=S)nc(N)[nH]c21`, the T/C is 81 % of control (endpoint: mean tumor weight, dose: 3.8 mg/kg/injection, schedule: Q01DX011 (ip), vehicle: other, higher = larger tumour); 63 % of control (endpoint: mean tumor weight, dose: 7.5 mg/kg/injection, schedule: Q01DX011 (ip), vehicle: other, higher = larger tumour); 17 % of control (endpoint: mean tumor weight, dose: 15.0 mg/kg/injection, schedule: Q01DX011 (ip), vehicle: other, higher = larger tumour).

As for `CCCCCCCCCCCC(c1ccccc1)[N+](C)(C)C` (stereo not given), the T/C is 102 % of control under setting [3], 96 % of control under setting [4] and 93 % of control under setting [5].

In the case of `CC(CN1CC(=O)NC(=O)C1)N1CC(=O)NC(=O)C1` (stereo not given), the T/C reads like this: under setting [3], 91 % of control; under setting [4], 109 % of control; (endpoint: median survival time, dose: 1.9 mg/kg/injection, schedule: Q01DX009 (ip), vehicle: saline, higher = longer survival) 112 % of control; (endpoint: median survival time, dose: 3.75 mg/kg/injection, schedule: Q01DX009 (ip), vehicle: saline, higher = longer survival) 106 % of control; (endpoint: median survival time, dose: 7.5 mg/kg/injection, schedule: Q01DX009 (ip), vehicle: saline, higher = longer survival) 108 % of control; (endpoint: median survival time, dose: 15.0 mg/kg/injection, schedule: Q01DX009 (ip), vehicle: Klucel (hydroxypropylcellulose) (HPC), higher = longer survival) 112 % of control. The T/C (endpoint: median survival time, dose: 30.0 mg/kg/injection, schedule: Q01DX009 (ip), vehicle: Klucel (hydroxypropylcellulose) (HPC), higher = longer survival) was 86 % of control; the T/C (endpoint: median survival time, dose: 60.0 mg/kg/injection, schedule: Q01DX009 (ip), vehicle: Klucel (hydroxypropylcellulose) (HPC), higher = longer survival) was 116 % of control; the T/C (endpoint: median tumor weight (est.), dose: 13.0 mg/kg/injection, schedule: Q01DX011 (ip), vehicle: saline, higher = larger tumour) is 57 % of control and 74 % of control; the T/C (endpoint: median tumor weight (est.), dose: 20.0 mg/kg/injection, schedule: Q01DX011 (ip), vehicle: saline, higher = larger tumour) is 58 % of control and 79 % of control; the T/C (endpoint: median tumor weight (est.), dose: 30.0 mg/kg/injection, schedule: Q01DX011 (ip), vehicle: saline, higher = larger tumour) is 68 % of control.

In the case of `IP(c1ccccc1)(c1ccccc1)(c1ccccc1)N1C2CCCCC21` (stereo not given), the T/C is, setting by setting: (endpoint: median survival time, dose: 0.3 mg/kg/injection, schedule: Q01DX009 (ip), vehicle: Klucel (hydroxypropylcellulose) (HPC), higher = longer survival) 94 % of control; (endpoint: median survival time, dose: 0.6 mg/kg/injection, schedule: Q01DX009 (ip), vehicle: Klucel (hydroxypropylcellulose) (HPC), higher = longer survival) 103 % of control; (endpoint: median survival time, dose: 38.0 micrograms/kg/injection, schedule: Q01DX009 (ip), vehicle: Klucel (hydroxypropylcellulose) (HPC), higher = longer survival) 94 % of control; (endpoint: median survival time, dose: 75.0 micrograms/kg/injection, schedule: Q01DX009 (ip), vehicle: Klucel (hydroxypropylcellulose) (HPC), higher = longer survival) 91 % of control; (endpoint: median survival time, dose: 150.0 micrograms/kg/injection, schedule: Q01DX009 (ip), vehicle: Klucel (hydroxypropylcellulose) (HPC), higher = longer survival) 104 % of control; (endpoint: median survival time, dose: 300.0 micrograms/kg/injection, schedule: Q01DX009 (ip), vehicle: Klucel (hydroxypropylcellulose) (HPC), higher = longer survival) 91 % of control.

As to `Cn1cnc([N+](=O)[O-])c1Sc1nc(N)nc2c1ncn2C1OC(CO)C(O)C1O` (stereo not given), the T/C is, setting by setting: (endpoint: mean tumor weight, dose: 1.0 mg/kg/injection, schedule: Q01DX011 (ip), vehicle: other, higher = larger tumour) 76 % of control; (endpoint: mean tumor weight, dose: 2.0 mg/kg/injection, schedule: Q01DX011 (ip), vehicle: other, higher = larger tumour) 64 % of control; (endpoint: mean tumor weight, dose: 4.0 mg/kg/injection, schedule: Q01DX011 (ip), vehicle: other, higher = larger tumour) 42 % of control; (endpoint: mean tumor weight, dose: 8.0 mg/kg/injection, schedule: Q01DX011 (ip), vehicle: other, higher = larger tumour) 18 % of control and 38 % of control; (endpoint: mean tumor weight, dose: 16.0 mg/kg/injection, schedule: Q01DX011 (ip), vehicle: other, higher = larger tumour) 37 % of control.

Take `OC(C1CO1)C(O)C1CO1` (stereo not given): the T/C runs as follows: (endpoint: mean tumor weight (est.), dose: 1.0 mg/kg/injection, schedule: Q01DX009 (ip), vehicle: saline, higher = larger tumour) 73 % of control; (endpoint: mean tumor weight (est.), dose: 1.0 mg/kg/injection, schedule: Q04DX003 (ip), vehicle: saline, higher = larger tumour) 65 % of control; (endpoint: mean tumor weight (est.), dose: 2.0 mg/kg/injection, schedule: Q01DX009 (ip), vehicle: saline, higher = larger tumour) 46 % of control; (endpoint: mean tumor weight (est.), dose: 2.0 mg/kg/injection, schedule: Q04DX003 (ip), vehicle: saline, higher = larger tumour) 45 % of control; (endpoint: mean tumor weight (est.), dose: 4.0 mg/kg/injection, schedule: Q04DX003 (ip), vehicle: saline, higher = larger tumour) 63 % of control; under setting [4], 95 % of control. In addition, the T/C was 104 % of control (endpoint: median survival time, dose: 1.0 mg/kg/injection, schedule: Q04DX003 (ip), vehicle: saline, higher = longer survival); 117 % of control under setting [5]; 104 % of control (endpoint: median survival time, dose: 2.0 mg/kg/injection, schedule: Q04DX003 (ip), vehicle: saline, higher = longer survival); 123 % of control (endpoint: median survival time, dose: 4.0 mg/kg/injection, schedule: Q04DX003 (ip), vehicle: saline, higher = longer survival).

In the case of `FC(F)(F)c1nc2nc(Cl)c(Cl)nc2[nH]1`, the T/C by setting is: (endpoint: median survival time, dose: 11.25 mg/kg/injection, schedule: Q01DX009 (ip), vehicle: Klucel (hydroxypropylcellulose) (HPC), higher = longer survival) 105 % of control; (endpoint: median survival time, dose: 22.5 mg/kg/injection, schedule: Q01DX009 (ip), vehicle: Klucel (hydroxypropylcellulose) (HPC), higher = longer survival) 101 % of control; (endpoint: median survival time, dose: 45.0 mg/kg/injection, schedule: Q01DX009 (ip), vehicle: Klucel (hydroxypropylcellulose) (HPC), higher = longer survival) 96 % of control; (endpoint: median survival time, dose: 90.0 mg/kg/injection, schedule: Q01DX009 (ip), vehicle: Klucel (hydroxypropylcellulose) (HPC), higher = longer survival) 98 % of control.

For the molecule `Nc1ccc(Cl)c(N)c1`, the T/C was 115 % of control (endpoint: mean tumor weight, dose: 22.0 mg/kg/injection, schedule: Q01DX011 (ip), vehicle: saline, higher = larger tumour); 117 % of control (endpoint: mean tumor weight, dose: 33.0 mg/kg/injection, schedule: Q01DX011 (ip), vehicle: saline, higher = larger tumour); 105 % of control (endpoint: mean tumor weight, dose: 50.0 mg/kg/injection, schedule: Q01DX011 (ip), vehicle: saline, higher = larger tumour).

As for `NC(=S)N/N=C/c1cc(-c2cccc(N)c2)ccn1`, the T/C is 106 % of control (endpoint: median survival time, dose: 6.25 mg/kg/injection, schedule: Q01DX009 (ip), vehicle: saline with Tween-80, higher = longer survival); 102 % of control and 106 % of control under setting [1]; 117 % of control and 119 % of control under setting [2]; 87 % of control and 123 % of control (endpoint: median survival time, dose: 50.0 mg/kg/injection, schedule: Q01DX009 (ip), vehicle: saline with Tween-80, higher = longer survival).

For the molecule `CN(CCCOS(C)(=O)=O)CCCOS(C)(=O)=O`, the T/C is 85 % of control (endpoint: mean tumor weight, dose: 5.0 mg/kg/injection, schedule: Q01DX011 (ip), vehicle: saline, higher = larger tumour); 78 % of control (endpoint: mean tumor weight, dose: 10.0 mg/kg/injection, schedule: Q01DX011 (ip), vehicle: saline, higher = larger tumour); 49 % of control (endpoint: mean tumor weight, dose: 20.0 mg/kg/injection, schedule: Q01DX011 (ip), vehicle: saline, higher = larger tumour); 59 % of control (endpoint: mean tumor weight, dose: 40.0 mg/kg/injection, schedule: Q01DX011 (ip), vehicle: saline, higher = larger tumour).
